Laboratory results from patent publication US20250040543A1, “Preservative Composition” (ARXADA AG, priority 2021, published 2025).
Where two headings read alike, the source gives them in different places.

What was measured:
[1] = tested on: Candida albicans; assay: MIC and Synergy Index (Kull) of two-component compositions; assay type: cell-based; conditions: for MIC: Candida albicans
Procedure: (§1) A wide range of concentrations were tested against Pseudomonas aeruginosa, Staphylococcus aureus, Escherichia coli, and Candda albicans.
(§2) The lowest concentration of each mixture or single compound which prevents an observable level of growth was determined to be the minimum inhibitory concentration (MIC) value.
(§3) Serial dilutions of each mixture or single compound were prepared. Micro-organisms were inoculated into media: Nutrient Broth (bacteria) or Malt Extract Broth (yeast). The final concentrations of micro-organisms in media was approximately 10^5-6 CFU/ml. The inoculated media was introduced to each of the serial dilutions at a 1:1 ratio, and incubated at 30±1° C. for 24-48 hours.
(§4) The MICs for each mixture was compared with the MIC of each single compound alone.
(§5) In this study the end point is measured by the MIC.

[2] = tested on: Aspergillus brasiliensis ATCC 16404; assay: Preservation efficacy test in sterile distilled water, drop plate; assay type: cell-based; conditions: 7 days, Butyl Levulinate 0 ppm
Procedure: (§6) In the following example, the following test organisms were used: • Pseudomonas aeruginosa ATCC 9027 • Aspergillus brasiliensis ATCC 16404 [table] Mould strain spores were harvested (sterile distilled water+0.05% polysorbate 80) and treated to remove fungal hyphae. Mould strain spores were prepared in diluent (sterile distilled water) to obtain a final concentration of 1.0×10^5 to 1.0×10^5 cfu/ml. [table] […] Each sample was inoculated at t=0 with a known concentration of micro-organism. Each inoculated sample was then mixed until a homogenous mixture was obtained. […] The solution was left for 15 minutes. Subsequent dilutions were prepared by serial dilution of 0.1 ml into 0.9 ml of neutralising broth. Bacteria were serially diluted to 10^−4, Fungi were serially diluted to 10^−3. Each serial dilution was thoroughly mixed and 25 μl drops were aliquoted onto the surface of pre-prepared agar plates. Plates were prepared in sextupicate for each sample dilution. The agar plates were allowed to dry, then inverted and incubated under conditions appropriate for the test microorganisms. CFU/ml was calculated taking into account dilution factors. […] The lower and upper limits for drop plating were only employed on the highest and lowest dilution factor plates.

[3] = tested on: Staphylococcus aureus; assay: MIC and Synergy Index (Kull) of two-component compositions; assay type: cell-based; conditions: for MIC: Staphylococcus aureus
Procedure: as §1, §2, §3, §4
(§7) Synergy was determined using the Kull equation (F. C. Kull et. al., “Mixtures of Quaternary Ammonium Compounds and Long-chain Fatty Acids as Antifungal Agents”, Appl Microbiol. 1961 November; 9(6): 538-541), which calculates a Synergy Index (SI) according the following equation:
(§8) [formula] • wherein • QA=concentration of compound A in ppm, acting alone produced an end point, • Qa=concentration of compound A in ppm, in the mixture, which produced an end point, • QB=concentration of compound B in ppm, acting alone produced an end point, and • Qb=concentration of compound B in ppm, in the mixture, which produced an end point;
as §5

[4] = tested on: Pseudomonas aeruginosa; assay: as above; assay type: cell-based; conditions: for MIC: Pseudomonas aeruginosa
Procedure: as §1, §2, §3, §4, §7, §8, §5

[5] = tested on: Escherichia coli; assay: as above; assay type: cell-based; conditions: for MIC: Escherichia coli
Procedure: as §1, §2, §3, §4, §7, §8, §5

[6] = tested on: Pseudomonas aeruginosa ATCC 9027; assay: Preservation efficacy test in sterile distilled water, drop plate; assay type: cell-based; conditions: 7 days, Butyl Levulinate 0 ppm
Procedure: as §6, with “[table] Bacteria” for “[table] Mould strain spores”, “harvested” for “harvested (sterile distilled water+0.05% polysorbate 80)”, “and” for “and treated to remove fungal hyphae. Mould strain spores were”, “of 1.0×10^6” for “of 1.0×10^5”, “to 5.0×10^6” for “to 1.0×10^5”

[7] = tested on: C. albicans; assay: as above; assay type: cell-based, Candida albicans; conditions: 7 days, pH 7, Butyl Levulinate 0 ppm
Procedure: Yeast strains were harvested and prepared in diluent (sterile distilled water) to obtain a final concentration of 1.0×10^5 to 1.0×10^6 cfu/ml.
Preservation efficacy testing started at Day 0 (t=0). Each sample was inoculated at t=0 with a known concentration of micro-organism. Each inoculated sample was then mixed until a homogenous mixture was obtained. Inoculated samples were stored in the dark at 22.5±2.5° C. throughout the test period.
At the specified contact time of 7 days (t=7), test samples were deactivated by adding a 0.1 ml aliquot of the test sample to 0.9 ml of an appropriate neutralising broth. The solution was left for 15 minutes. Subsequent dilutions were prepared by serial dilution of 0.1 ml into 0.9 ml of neutralising broth. Bacteria were serially diluted to 10^−4, Fungi were serially diluted to 10^−3.
Each serial dilution was thoroughly mixed and 25 μl drops were aliquoted onto the surface of pre-prepared agar plates. Plates were prepared in sextupicate for each sample dilution.
The agar plates were allowed to dry, then inverted and incubated under conditions appropriate for the test microorganisms.
CFU/ml was calculated taking into account dilution factors. Colonies from the incubated plates were enumerated using the lower count limit of <10 CFU/ml and the upper count limit of >330 CFU/ml.
The lower and upper limits for drop plating were only employed on the highest and lowest dilution factor plates.
The test organisms were prepared and the method was performed according to the protocol of Example 1.

[8] = Lactic Acid alone, or its concentration in the mixture with ethyl levulinate, read-out: MIC (ppm) to inhibit growth: Lactic Acid
[9] = ADBAC alone, or its concentration in the mixture with ethyl levulinate
[10] = ethyl levulinate alone, or its concentration in the mixture with Sodium benzoate, read-out: MIC (ppm) to inhibit growth: Ethyl levulinate
[11] = ethyl levulinate alone, or its concentration in the mixture with Sodium Pyrithione
[12] = Sodium benzoate alone, or its concentration in the mixture with butyl levulinate
[13] = Sodium benzoate alone, or its concentration in the mixture with ethyl levulinate
[14] = pH 7, Sodium Benzoate 10000 ppm
[15] = pH 7, Sodium Benzoate 15000 ppm
[16] = pH 7, Sodium Benzoate 20000 ppm
[17] = pH 7, Sodium Benzoate 25000 ppm
[18] = pH 8, Sodium Benzoate 10000 ppm
[19] = pH 8, Sodium Benzoate 15000 ppm
[20] = pH 8, Sodium Benzoate 20000 ppm
[21] = pH 8, Sodium Benzoate 25000 ppm
[22] = read-out: MIC (ppm) to inhibit growth: DHA
[23] = read-out: MIC (ppm) to inhibit growth: Potassium Sorbate
[24] = pH 7, Potassium Sorbate 5000 ppm
[25] = pH 7, Potassium Sorbate 10000 ppm
[26] = pH 7, Potassium Sorbate 15000 ppm
[27] = pH 7, Potassium Sorbate 20000 ppm
[28] = pH 7, Potassium Sorbate 25000 ppm
[29] = Sodium Pyrithione alone, or its concentration in the mixture with ethyl levulinate
[30] = Sodium pyrithione alone, or its concentration in the mixture with butyl levulinate

**Q.** `O=c1[nH]sc2ccccc12` [BIT, benzisothiazolinone, reference compound] was tested. Which “MIC (ppm) to inhibit growth: BIT” value ([1]; BIT alone, or its concentration in the mixture with butyl levulinate) did it give?
**A.** 31 ppm

**Q.** With `CCCCNC(=O)OCC#CI` [IPBC, 3-Iodo-2-propynyl butylcarbamate, reference compound] as the compound, how does the Log reduction ([2]; pH 7, IPBC 100 ppm) read?
**A.** 1.21

**Q.** What about the Log reduction ([2]; pH 7, IPBC 250 ppm) of the same compound?
**A.** 0.77

**Q.** And the Log reduction ([2]; pH 7, IPBC 500 ppm)?
**A.** 0.71

**Q.** What about the Log reduction ([2]; pH 7, IPBC 750 ppm) of the same compound?
**A.** 0.57

**Q.** What about the Log reduction ([2]; pH 7, IPBC 1000 ppm) of the same compound?
**A.** 0.85

**Q.** Which results are given for `CC(O)C(=O)O` (stereo not drawn) [Lactic Acid, lactic acid, reference compound]?
**A.** MIC [3, 8]: 156 µg/mL; MIC ([4]; Lactic Acid alone, or its concentration in the mixture with butyl levulinate, read-out: MIC (ppm) to inhibit growth: Lactic Acid): 625 µg/mL; MIC [1, 8]: 10000 µg/mL

**Q.** “alkyldimethylbenzylammonium chloride [ADBAC]” was tested. Which “MIC (ppm) to inhibit growth: ADBAC” value [4, 9] did it give?
**A.** 16 ppm

**Q.** And the “MIC (ppm) to inhibit growth: ADBAC” value [1, 9]?
**A.** 8 ppm

**Q.** `CCOC(=O)CCC(C)=O` [Ethyl levulinate, ethyl levulinate] was tested. Which MIC ([3]; ethyl levulinate alone, or its concentration in the mixture with Lactic Acid, read-out: MIC (ppm) to inhibit growth: Ethyl levulinate) did it give?
**A.** 12500 µg/mL

**Q.** And the MIC ([3]; ethyl levulinate alone, or its concentration in the mixture with Potassium Sorbate, read-out: MIC (ppm) to inhibit growth: Ethyl levulinate)?
**A.** 12500 µg/mL

**Q.** And the MIC [3, 10]?
**A.** 25000 µg/mL

**Q.** And the MIC [5, 10]?
**A.** 25000 µg/mL

**Q.** And the MIC ([4]; ethyl levulinate alone, or its concentration in the mixture with ADBAC, read-out: MIC (ppm) to inhibit growth: Ethyl levulinate)?
**A.** 12500 µg/mL

**Q.** And the “MIC (ppm) to inhibit growth: Ethyl levulinate” value [4, 11]?
**A.** 12500 ppm

**Q.** What about the MIC [1, 10] of the same compound?
**A.** 25000 µg/mL

**Q.** What about the “MIC (ppm) to inhibit growth: Ethyl levulinate” value ([1]; ethyl levulinate alone, or its concentration in the mixture with ADBAC) of the same compound?
**A.** 25000 ppm

**Q.** What about the “MIC (ppm) to inhibit growth: Ethyl levulinate” value ([1]; ethyl levulinate alone, or its concentration in the mixture with Lactic Acid) of the same compound?
**A.** 25000 ppm

**Q.** And the “MIC (ppm) to inhibit growth: Ethyl levulinate” value ([1]; ethyl levulinate alone, or its concentration in the mixture with Potassium Sorbate)?
**A.** 25000 ppm

**Q.** What about the “MIC (ppm) to inhibit growth: Ethyl levulinate” value [1, 11] of the same compound?
**A.** 25000 ppm

**Q.** What does the source list for `O=C([O-])c1ccccc1.[Na+]` [Sodium Benzoate, sodium benzoate, reference compound]?
**A.** MIC (ppm) to inhibit growth: Sodium benzoate [3, 12]: 15000 ppm; MIC (ppm) to inhibit growth: Sodium benzoate [3, 13]: 15000 ppm; MIC (ppm) to inhibit growth: Sodium benzoate [5, 12]: 7500 ppm; MIC (ppm) to inhibit growth: Sodium benzoate [5, 13]: 7500 ppm; Log reduction ([6]; pH 7, Sodium Benzoate 5000 ppm): 1.73; Log reduction [6, 14]: >4.90; Log reduction [6, 15]: >4.90; Log reduction [6, 16]: >4.90; Log reduction [6, 17]: >4.90; Log reduction ([6]; pH 8, Sodium Benzoate 5000 ppm): 1.54; Log reduction [6, 18]: 1.36; Log reduction [6, 19]: 1.57; Log reduction [6, 20]: 3.20; Log reduction [6, 21]: >4.57; MIC (ppm) to inhibit growth: Sodium benzoate [1, 12]: 7500 ppm; MIC (ppm) to inhibit growth: Sodium benzoate [1, 13]: 7500 ppm; Log reduction ([2]; pH 7, Sodium Benzoate 5000 ppm): 2.09; Log reduction [2, 14]: 2.14; Log reduction [2, 15]: 2.20; Log reduction [2, 16]: 2.33; Log reduction [2, 17]: 3.11; Log reduction ([2]; pH 8, Sodium Benzoate 5000 ppm): 0.33; Log reduction [2, 18]: 0.70; Log reduction [2, 19]: 0.64; Log reduction [2, 20]: 0.60; Log reduction [2, 21]: 0.55

**Q.** For “poly(hexamethylene) biguanide [PHMB, reference compound]”, which “MIC (ppm) to inhibit growth: PHMB” value ([1]; PHMB alone, or its concentration in the mixture with butyl levulinate) is on record?
**A.** 313 ppm

**Q.** Which results are given for `CC(=O)C1C(=O)C=C(C)OC1=O` (stereo not drawn) [DHA, dehydroacetic acid, reference compound]?
**A.** MIC [5, 22]: 5000 µg/mL; MIC [1, 22]: 250 µg/mL

**Q.** What does the source list for `C/C=C/C=C/C(=O)[O-].[K+]` [Potassium Sorbate, potassium sorbate, reference compound]?
**A.** Log reduction ([7]; Potassium Sorbate 5000 ppm): 1.01; Log reduction ([7]; Potassium Sorbate 10000 ppm): 0.72; Log reduction ([7]; Potassium Sorbate 15000 ppm): 0.72; Log reduction ([7]; Potassium Sorbate 20000 ppm): 0.92; Log reduction ([7]; Potassium Sorbate 25000 ppm): 0.83; MIC [3, 23]: 156 µg/mL; Log reduction [6, 24]: <0.03; Log reduction [6, 25]: <0.03; Log reduction [6, 26]: <0.03; Log reduction [6, 27]: >4.55; Log reduction [6, 28]: >4.55; Log reduction ([6]; pH 8, Potassium Sorbate 5000 ppm): <0.33; Log reduction ([6]; pH 8, Potassium Sorbate 10000 ppm): <0.33; Log reduction ([6]; pH 8, Potassium Sorbate 15000 ppm): <0.33; Log reduction ([6]; pH 8, Potassium Sorbate 20000 ppm): <0.33; Log reduction ([6]; pH 8, Potassium Sorbate 25000 ppm): <0.33; MIC [1, 23]: 2500 µg/mL; MIC (ppm) to inhibit growth: Potassium Sorbate ([1]; Potassium Sorbate alone, or its concentration in the mixture with butyl levulinate): 2500 ppm; Log reduction [2, 24]: 0.58; Log reduction [2, 25]: 0.67; Log reduction [2, 26]: 0.45; Log reduction [2, 27]: 0.64; Log reduction [2, 28]: 0.52

**Q.** With `[Na+].[O-][n+]1ccccc1[S-]` [Sodium Pyrithione, sodium pyrithione, reference compound] as the compound, how does the “MIC (ppm) to inhibit growth: Sodium Pyrithione” value [4, 29] read?
**A.** 63 ppm

**Q.** What about the “MIC (ppm) to inhibit growth: Sodium Pyrithione” value [4, 30] of the same compound?
**A.** 63 ppm

**Q.** And the “MIC (ppm) to inhibit growth: Sodium Pyrithione” value [1, 29]?
**A.** 31 ppm

**Q.** And the “MIC (ppm) to inhibit growth: Sodium Pyrithione” value [1, 30]?
**A.** 16 ppm
